Like-named read-outs stand apart in the source and are kept apart here. One block for each compound: values may come before it.
Key:
[1] = molecular target: human PRC2 core complex (EZH2^N 1-385 lacking 183-210, EZH2^C 421-746, EED 77-441, SUZ12 535-685) (human) (UniProt Q15910); assay: fluorescence polarisation; anisotropy displacement titration: unlabelled peptide added to FAM-H3K27M (0.4 μM) and PRC2 ([…]) with SAM (320 μM); 20 °C; 25 mM Hepes pH 7.25, 25 mM NaCl, 1 mM TCEP, 0.01% Brij-35
[2] = tested on: PRC2; details: kinetic studies, cited from earlier work
Source text: In their recent analysis, Brown et al.[19] quantified the inhibitory affect of a series of peptide constructs varying in the side chain (both natural and synthetic) at position 27.

[3] = molecular target: human PRC2 complex (Homo sapiens, UniProt O75530+Q15022+Q15910, DEL183-210)
human PRC2 complex, sequence (Q15910 421-746 limits assumed, stated change not applied): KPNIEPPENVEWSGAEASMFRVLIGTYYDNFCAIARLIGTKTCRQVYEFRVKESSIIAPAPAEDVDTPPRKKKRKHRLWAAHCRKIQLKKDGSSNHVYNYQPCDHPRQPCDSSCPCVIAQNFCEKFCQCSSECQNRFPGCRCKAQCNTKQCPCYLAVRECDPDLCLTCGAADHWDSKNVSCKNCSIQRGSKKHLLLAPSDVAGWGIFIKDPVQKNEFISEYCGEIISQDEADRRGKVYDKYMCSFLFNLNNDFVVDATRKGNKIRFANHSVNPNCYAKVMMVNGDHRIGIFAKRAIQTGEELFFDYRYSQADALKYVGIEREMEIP
human PRC2 complex, sequence (Q15910 with tags, fused parts or gaps DEL183-210 limits assumed): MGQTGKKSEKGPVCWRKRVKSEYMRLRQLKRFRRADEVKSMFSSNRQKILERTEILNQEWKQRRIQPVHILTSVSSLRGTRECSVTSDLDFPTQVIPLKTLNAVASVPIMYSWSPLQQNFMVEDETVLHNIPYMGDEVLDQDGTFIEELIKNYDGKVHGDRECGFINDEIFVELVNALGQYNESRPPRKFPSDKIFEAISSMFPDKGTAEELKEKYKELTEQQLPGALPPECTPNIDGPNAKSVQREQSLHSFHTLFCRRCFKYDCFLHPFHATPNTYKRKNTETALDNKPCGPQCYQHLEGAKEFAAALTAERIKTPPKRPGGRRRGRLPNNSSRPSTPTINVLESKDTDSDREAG
human PRC2 complex, sequence (O75530 77-441 partner limits assumed): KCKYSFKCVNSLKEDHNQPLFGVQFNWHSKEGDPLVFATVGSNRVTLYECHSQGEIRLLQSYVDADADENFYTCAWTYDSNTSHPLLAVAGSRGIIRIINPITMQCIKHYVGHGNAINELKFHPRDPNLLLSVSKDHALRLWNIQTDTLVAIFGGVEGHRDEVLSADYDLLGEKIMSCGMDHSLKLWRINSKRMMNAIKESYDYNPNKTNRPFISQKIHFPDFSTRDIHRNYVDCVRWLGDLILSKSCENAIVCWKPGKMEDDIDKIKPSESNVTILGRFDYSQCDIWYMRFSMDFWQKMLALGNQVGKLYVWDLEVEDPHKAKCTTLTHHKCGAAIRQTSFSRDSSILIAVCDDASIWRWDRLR
human PRC2 complex, sequence (Q15022 535-685 partner limits assumed): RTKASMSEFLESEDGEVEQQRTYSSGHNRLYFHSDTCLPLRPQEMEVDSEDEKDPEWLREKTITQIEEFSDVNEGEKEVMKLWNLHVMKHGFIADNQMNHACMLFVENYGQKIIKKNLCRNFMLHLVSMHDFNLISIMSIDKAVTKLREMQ
Procedure: All anisotropy titrations were performed at 20 °C using a Jasco FP-8500 fluorimeter.
affinity of PRC2 for H3 peptide.
(a) Direct titration of PRC2 into FAM-K27M (0.4 μM) in the presence
absence of co-factor (white circles).
(320 μM) with unlabelled peptides.
titration of PRC2 into FAM-
The titration in the absence of repressive

[4] = tested on: PRC2; details: repressive peptides; cited from earlier work

human PRC2 core complex (EZH2^N 1-385 lacking 183-210, EZH2^C 421-746, EED 77-441, SUZ12 535-685) (human), sequence (Q15910 other isoform, or with tags, fused parts or gaps, chain 1 of 4): as the sequence (Q15910 with tags, fused parts or gaps DEL183-210 limits assumed) above
human PRC2 core complex (EZH2^N 1-385 lacking 183-210, EZH2^C 421-746, EED 77-441, SUZ12 535-685) (human), sequence (Q15910 421-746, chain 2 of 4): as the sequence (Q15910 421-746 limits assumed, stated change not applied) above
human PRC2 core complex (EZH2^N 1-385 lacking 183-210, EZH2^C 421-746, EED 77-441, SUZ12 535-685) (human), sequence (O75530 77-441, chain 3 of 4, further chain): as the sequence (O75530 77-441 partner limits assumed) above
human PRC2 core complex (EZH2^N 1-385 lacking 183-210, EZH2^C 421-746, EED 77-441, SUZ12 535-685) (human), sequence (Q15022 535-685, chain 4 of 4, further chain): as the sequence (Q15022 535-685 partner limits assumed) above

Kd [1]: 73 µM
Compound: unlabelled H3R26AK27M peptide

Compound: Norleucine
relative inhibition of PRC2 by residue at position 27 (words) [2]: even better inhibitor than methionine
relative inhibition of PRC2 by residue at position 27 (words) ([2]; listed as norleucine): strong inhibition

binding of cofactor product ([3]; relative to SAM): binds much weaker
Compound: Nc1ncnc2c1ncn2[C@@H]1O[C@H](CSCC[C@H](N)C(=O)O)[C@@H](O)[C@H]1O [SAH]

Kd [3]: 47 ± 9 µM
Compound: C[S+](CC[C@H](N)C(=O)[O-])C[C@H]1O[C@@H](n2cnc3c(N)ncnc32)[C@H](O)[C@@H]1O (stereo partly drawn) [SAM, S-adenosylmethionine]

Compound: Jarid2 K116me3: trimethylated K116 Jarid2 peptide (residues 111–121), binds EED and activates PRC2
activation of PRC2 [4]: strongest activation of PRC2
